US20040266811A1, “Methods for inducing regeneration, remyelination, and hypermyelination of nervous tissue” (priority 2002, published 2004)
Entries after “also recorded” stand apart in the source; their conditions may differ.

How the values were obtained:
[1] = system: purified chick sensory neurons (PC12 or SH-SY5Y cells); settings: literature; cited from earlier work
[2] = system: calcineurin; settings: cited from earlier work
[3] = system: DRG explants; test: DRG explant neurite outgrowth with anti-NGF neutralizing antibodies or MEK1 inhibitor; format: cell-based, C57B1/6 mice
Protocol: (A) DRGs were prepared and cultured as above, except that either the MEK1 inhibitor, PD 098059, or NGF-neutralizing antibodies were included in cultures treated with either NGF or GM-284. Maximal response was determined to be the extent of neurite outgrowth when DRGs were cultured in NGF alone (spotted bars) or in 1 μM GM-284 (striped bars). As indicated, DRGs were treated with either NGF or GM-284, in the presence of either 0.25 mg/ml anti-NGF neutralizing antibodies or PD 098059. […] DRGs were treated with 100 ng/ml NGF or 1 μM GM-284, for 30 min or 4 h, as indicated, and the detergent lysates were prepared and immunoblotted with anti-phospho-Erk monoclonal antibody. The p42 and p44 bands are indicated by arrowheads.
Explanted DRG ganglia were dissected from P1 to P3 C57B1/6 mice, as previously described (Weinstein et al., Targeted expression of an oncogenic adaptor protein v-Crk potentiates axonal growth in dorsal root ganglia and motor neurons in vivo. Brain Res. Dev. Brain Res., 116:29-39, 1999). Briefly, DRGs were dissected and placed in ice-cold PBS containing 2% glucose, then transferred onto polyornithine/laminin-coated tissue culture plates (Biocoat, Becton Dickinson Laboratories) in DMEM-plating medium overnight. The plating medium consisted of Dulbecco's minimal essential plating medium (DMEM) supplemented with 10% fetal calf serum (FCS; Hyclone), 0.6% glucose, 2 mM glutamine, 100 U/ml penicillin, 100 μg/ml streptomycin, and 20 mM HEPES. […] For experiments employing anti-NGF neutralizing antibodies, cultures were incubated with […] anti-NGF antiserum, and replaced every two days. Cultures were kept at 37° C., in 5% CO2, for up to 1 week, at which time the extent of well-defined neurite outgrowth was assessed.
Signaling by the neurotrophins, while mediated by different cell-surface receptors, converges on the extensively studied and well-characterized MAP kinase pathway. […] Therefore, the inventors explored the possibility that GM-284 might signal through NGF directly, or through the MAP kinase cascade. […]

For `CCC(C)(C)C(=O)C(=O)N1CCC[C@H]1C(=O)OCCCc1cccnc1` [GPI-1046], the “neurite outgrowth without other signaling molecules / with sub-threshold NGF” value [1] is given as “potentiate neurite outgrowth only when co-administered with sub-threshold concentrations of NGF; also recorded: unable to mediate neurite outgrowth in the absence of other signaling molecules” and the “binding to / inhibition of calcineurin” value [2] is given as “neither bind to, nor inhibit, calcineurin”.
For `COc1cccc(-c2cc(=O)c3ccccc3o2)c1N` [PD 098059], the “effect of anti-NGF / MEK1 inhibition on GM-284-mediated neurite outgrowth” value ([3]; DRGs cultured in 1 μM GM-284 plus inhibitor) was “no effect” and the “decrease of NGF-dependent neurite outgrowth” value ([3]; DRGs cultured in NGF plus inhibitor) was about 40%.
